Values of other authors as cited in US20210161190A1, “CORE BODY TEMPERATURE REDUCING AGENT, FOOD PRODUCT, AND SLEEP IMPROVING AGENT” (JAPAN TOBACCO INC., priority 2018, published 2021).

Columns and labels:
[1] = intake of glycine
[2] = tested on: mouse models of sleep disorder caused by imposed stress
[3] = stress-imposed mouse models, continuous administration 350 to 3000 mg/kg of body weight per day

Row | Compound | core body temperature after intake [1] | percentage of Non-REM sleep [1] | circadian variation in core body temperature ([2]; mice without imposed stress) | REM sleep [2, 3] | non-REM sleep [2, 3]
1 | NCC(=O)O [glycine] | reduces core body temperature | improves the percentage of Non-REM sleep |  |  | 
2 | O=C[C@H](O)[C@H](O)[C@H](O)CO [D-ribose] |  |  | hardly affected | suppressed reduction in REM sleep | promoted increases in non-REM sleep
